# From paper PMC4965013, “Open Source Drug Discovery with the Malaria Box Compound Collection for Neglected Diseases and Beyond” (PLoS Pathogens, 2016)
# pEC50, pIC50: −log10 of the molar value. Where two headings read alike, the source gives them in different places.
# Legend:
# [1] = system: P. falciparum 3D7 trophozoites; test: Metabolomic fingerprint profiling LC-MS; format: cell-based, Plasmodium falciparum; set-up: UDP-D-glucose / ADP-D-glucose: unit not given here; conditions: for Acetyllysine / N-acetyl-L-ornithine / N-carbamoyl-L-aspartate / NADPH / dAMP / dCMP / dTDP / dTMP / dTTP / dihydroorotate / orotate / DLH / DLS/SDL/SID / PD / PEE / PVNF / 3-phosphoglycerate / ADP-D-glucose / ATP / CDP / D-sedoheptulose-1/7-phosphate / FAD / GMP / NAD+ / NADP+ / Octoluse Bisphosphate / Pyroglutamic acid / UDP-D-glucose / UDP-D-glucuronate / UDP-N-acetyl-glucosamine / UDP / UMP / UTP / a-ketoglutarate / citrate/isocitrate / cytidine / dATP / dGMP/AMP / fumarate / glucose-1/6-phosphate / glycerate / guanine / guanosine / hypoxanthine / indole / inosine / nicotinate / ornithine / phosphoenolpyruvate / pyruvate / ribose-phosphate / sarcosine/alanine / sn-glycerol-3-phosphate / succinate/methylmalonic acid / uridine / xanthosine: S2 Table Metabolomics; for Acetyllysine: metabolite Acetyllysine; for N-acetyl-L-ornithine: metabolite N-acetyl-L-ornithine; for N-carbamoyl-L-aspartate: metabolite N-carbamoyl-L-aspartate; for NADPH: metabolite NADPH; for dAMP: metabolite dAMP; for dCMP: metabolite dCMP; for dTDP: metabolite dTDP; for dTMP: metabolite dTMP; for dTTP: metabolite dTTP; for dihydroorotate: metabolite dihydroorotate; for orotate: metabolite orotate; for DLH: peptide DLH; for DLS/SDL/SID: peptide DLS/SDL/SID; for PD: peptide PD; for PEE: peptide PEE; for PVNF: peptide PVNF; for 3-phosphoglycerate: metabolite 3-phosphoglycerate; for ADP-D-glucose: metabolite ADP-D-glucose; for ATP: metabolite ATP; for CDP: metabolite CDP; for CDP / D-sedoheptulose-1/7-phosphate / GMP / Octoluse Bisphosphate / UDP / UMP / UTP / citrate/isocitrate / dGMP/AMP / fumarate / glucose-1/6-phosphate / glycerate / guanine / guanosine / inosine / pyruvate / sarcosine/alanine / succinate/methylmalonic acid / uridine / xanthosine: change in metabolite level after compound treatment; for D-sedoheptulose-1/7-phosphate: metabolite D-sedoheptulose-1/7-phosphate; for FAD: metabolite FAD; for GMP: metabolite GMP; for NAD+: metabolite NAD+; for NADP+: metabolite NADP+; for Octoluse Bisphosphate: metabolite Octoluse Bisphosphate; for Pyroglutamic acid: metabolite Pyroglutamic acid; for UDP-D-glucose: metabolite UDP-D-glucose; for UDP-D-glucuronate: metabolite UDP-D-glucuronate; for UDP-N-acetyl-glucosamine: metabolite UDP-N-acetyl-glucosamine; for UDP: metabolite UDP; for UMP: metabolite UMP; for UTP: metabolite UTP; for a-ketoglutarate: metabolite a-ketoglutarate; for citrate/isocitrate: metabolite citrate/isocitrate; for cytidine: metabolite cytidine; for dATP: metabolite dATP; for dGMP/AMP: metabolite dGMP/AMP; for fumarate: metabolite fumarate; for glucose-1/6-phosphate: metabolite glucose-1/6-phosphate; for glycerate: metabolite glycerate; for guanine: metabolite guanine; for guanosine: metabolite guanosine; for hypoxanthine: metabolite hypoxanthine; for indole: metabolite indole; for inosine: metabolite inosine; for 2_3-Diphosphoglyceric acid / 4-phosphopantothenate / 6-phospho-D-gluconate / FMN / IMP / Pyrophosphate / Sedoheptoluse bisphosphate / cyclic-AMP / glutathione disulfide / lactate / myo-inositol: metabolite level change after treatment; for nicotinate: metabolite nicotinate; for ornithine: metabolite ornithine; for phosphoenolpyruvate: metabolite phosphoenolpyruvate; for pyruvate: metabolite pyruvate; for ribose-phosphate: metabolite ribose-phosphate; for sarcosine/alanine: metabolite sarcosine/alanine; for sn-glycerol-3-phosphate: metabolite sn-glycerol-3-phosphate; for succinate/methylmalonic acid: metabolite succinate/methylmalonic acid; for uridine: metabolite uridine; for xanthosine: metabolite xanthosine
# P. falciparum = test: EC50 listed in S2 Table Metabolomics (used to set the concentration tested); format: cell-based; conditions: Plasmodium falciparum; EC50 used for Factor_XEC50 in metabolomics; read-out: EC50_nM
# P. falciparum 3D7 = test: [3H]-hypoxanthine growth inhibition, modified HCO3- or O2; format: cell-based; conditions: for pIC50: Plasmodium falciparum
# [2] = 3D7, read-out: P. falciparum 3D7 IC50 1% O2, 1% O2 hypoxia
# [3] = 3D7, read-out: P. falciparum 3D7 IC50 5% O2
structure (smiles),measurement,setting,value
CCCc1c(CC)c(=N)c2ccccc2n1C [MMV008416],Acetyllysine,[1],0.2915
same,N-acetyl-L-ornithine,[1],0.3364
same,N-carbamoyl-L-aspartate,[1],0.3652
same,NADPH,[1],0.8856
same,dAMP,[1],0.5762
same,dCMP,[1],3.613
same,dTDP,[1],0.4591
same,dTMP,[1],0.9083
same,dTTP,[1],0.4804
same,dihydroorotate,[1],0.2294
same,orotate,[1],-0.1417
same,DLH,[1],-1.006
same,DLS/SDL/SID,[1],0.3509
same,PD,[1],0.4359
same,PEE,[1],-0.9814
same,PVNF,[1],0.2215
same,3-phosphoglycerate,[1],-0.02776
same,ADP-D-glucose,[1],0.4196
same,ATP,[1],0.6896
same,CDP,[1],0.2951
same,D-sedoheptulose-1/7-phosphate,[1],-0.3684
same,FAD,[1],0.5238
same,GMP,[1],0.02334
same,NAD+,[1],0.4432
same,NADP+,[1],0.7628
same,Octoluse Bisphosphate,[1],0.3902
same,Pyroglutamic acid,[1],-0.3783
same,UDP-D-glucose,[1],0.135
same,UDP-D-glucuronate,[1],-0.2053
same,UDP-N-acetyl-glucosamine,[1],0.4341
same,UDP,[1],0.7261
same,UMP,[1],-0.1733
same,UTP,[1],0.4819
same,a-ketoglutarate,[1],0.04368
same,citrate/isocitrate,[1],-1.579
same,cytidine,[1],0.4905
same,dATP,[1],0.253
same,dGMP/AMP,[1],0.3177
same,fumarate,[1],-0.39
same,glucose-1/6-phosphate,[1],2.308
same,glycerate,[1],0.1238
same,guanine,[1],0.3854
same,guanosine,[1],-0.8003
same,hypoxanthine,[1],0.09764
same,indole,[1],0.1467
same,inosine,[1],-0.1012
same,2_3-Diphosphoglyceric acid,[1],0.2083
same,4-phosphopantothenate,[1],0.7504
same,6-phospho-D-gluconate,[1],0.5606
same,FMN,[1],0.7862
same,IMP,[1],0.4308
same,Pyrophosphate,[1],-0.6119
same,Sedoheptoluse bisphosphate,[1],0.3141
same,cyclic-AMP,[1],0.6453
same,glutathione disulfide,[1],0.5116
same,lactate,[1],1.188
same,myo-inositol,[1],2.818
same,nicotinate,[1],-0.5574
same,ornithine,[1],-0.1174
same,phosphoenolpyruvate,[1],-0.4016
same,pyruvate,[1],0.4708
same,ribose-phosphate,[1],0.2759
same,sarcosine/alanine,[1],0.4883
same,sn-glycerol-3-phosphate,[1],0.06223
same,succinate/methylmalonic acid,[1],-0.5916
same,uridine,[1],0.398
same,xanthosine,[1],-0.8913
same,pEC50,P. falciparum,6.62
same,fold change (IC50normal/ IC50hypoxia),P. falciparum 3D7,6.1
same,pIC50,P. falciparum 3D7; [2],7.19
same,pIC50,P. falciparum 3D7; [3],6.40
Cc1cc(Nc2ccc(Cl)cc2)n2nc(C(F)(F)F)nc2n1 [MMV011256],Acetyllysine,[1],-0.5963
same,N-acetyl-L-ornithine,[1],-0.507
same,N-carbamoyl-L-aspartate,[1],4.681
same,NADPH,[1],1.178
same,dAMP,[1],-1.417
same,dCMP,[1],0.2248
same,dTDP,[1],-0.9712
same,dTMP,[1],-0.998
same,dTTP,[1],-0.8663
same,dihydroorotate,[1],5.399
same,orotate,[1],-0.2345
same,DLH,[1],-0.3185
same,DLS/SDL/SID,[1],-0.4128
same,PD,[1],0.2516
same,PEE,[1],-0.4695
same,PVNF,[1],-1.475
same,3-phosphoglycerate,[1],0.08815
same,ADP-D-glucose,[1],0.5309
same,ATP,[1],-0.05125
same,CDP,[1],-0.6896
same,D-sedoheptulose-1/7-phosphate,[1],0.1853
same,FAD,[1],0.084
same,GMP,[1],0.2583
same,NAD+,[1],0.00935
same,NADP+,[1],0.5726
same,Octoluse Bisphosphate,[1],0.02106
same,Pyroglutamic acid,[1],-0.3979
same,UDP-D-glucose,[1],0.01111
same,UDP-D-glucuronate,[1],-0.02444
same,UDP-N-acetyl-glucosamine,[1],-0.1642
same,UDP,[1],-0.997
same,UMP,[1],-0.7924
same,UTP,[1],-1.308
same,a-ketoglutarate,[1],-0.5125
same,citrate/isocitrate,[1],-0.4219
same,cytidine,[1],-0.1943
same,dATP,[1],0.3626
same,dGMP/AMP,[1],0.01292
same,fumarate,[1],-0.2283
same,glucose-1/6-phosphate,[1],-0.259
same,glycerate,[1],-0.6701
same,guanine,[1],0.06677
same,guanosine,[1],0.3651
same,hypoxanthine,[1],-0.6973
same,indole,[1],-0.3061
same,inosine,[1],-0.4425
same,2_3-Diphosphoglyceric acid,[1],0.2246
same,4-phosphopantothenate,[1],-0.3914
same,6-phospho-D-gluconate,[1],0.1976
same,FMN,[1],-0.1065
same,IMP,[1],0.1475
same,Pyrophosphate,[1],0.2465
same,Sedoheptoluse bisphosphate,[1],0.08943
same,cyclic-AMP,[1],-0.1063
same,glutathione disulfide,[1],0.192
same,lactate,[1],-0.653
same,myo-inositol,[1],-1.111
same,nicotinate,[1],-0.2929
same,ornithine,[1],0.09761
same,phosphoenolpyruvate,[1],0.0459
same,pyruvate,[1],-0.6078
same,ribose-phosphate,[1],-0.1179
same,sarcosine/alanine,[1],0.2817
same,sn-glycerol-3-phosphate,[1],-0.0008256
same,succinate/methylmalonic acid,[1],0.03166
same,uridine,[1],-0.902
same,xanthosine,[1],0.002012
same,pEC50,P. falciparum,6.67
same,fold change (IC50normal/ IC50hypoxia),P. falciparum 3D7,5.0
same,pIC50,P. falciparum 3D7; [2],7.15
same,pIC50,P. falciparum 3D7; [3],6.46
